# Experimental data: US12440471B2, “Compositions and methods for the treatment of bronchopulmonary dysplasia (BPD) and BPD-associated pulmonary hypertension” (AyuVis Research, Inc., priority 2021, dated 2025)
# Like-named read-outs stand apart in the source and are kept apart here.
# Legend:
# pre-term lamb BPD model [1] = assay: Pre-term lamb BPD model: plasma cytokines; assay type: in vivo
# TLR4 [2] = molecular target: T1, TLR4 (Homo sapiens, UniProt O00206); assay: TLR4 level in THP-1 human monocytic cells by ELISA; assay type: cell-based
# T1 construct: Cell lysates were prepared, total protein was quantified and treated with different concentrations; host or cells: THP-1 cells stimulated with PMA for 48 h, then lysed
# T1 sequence (O00206 24-839): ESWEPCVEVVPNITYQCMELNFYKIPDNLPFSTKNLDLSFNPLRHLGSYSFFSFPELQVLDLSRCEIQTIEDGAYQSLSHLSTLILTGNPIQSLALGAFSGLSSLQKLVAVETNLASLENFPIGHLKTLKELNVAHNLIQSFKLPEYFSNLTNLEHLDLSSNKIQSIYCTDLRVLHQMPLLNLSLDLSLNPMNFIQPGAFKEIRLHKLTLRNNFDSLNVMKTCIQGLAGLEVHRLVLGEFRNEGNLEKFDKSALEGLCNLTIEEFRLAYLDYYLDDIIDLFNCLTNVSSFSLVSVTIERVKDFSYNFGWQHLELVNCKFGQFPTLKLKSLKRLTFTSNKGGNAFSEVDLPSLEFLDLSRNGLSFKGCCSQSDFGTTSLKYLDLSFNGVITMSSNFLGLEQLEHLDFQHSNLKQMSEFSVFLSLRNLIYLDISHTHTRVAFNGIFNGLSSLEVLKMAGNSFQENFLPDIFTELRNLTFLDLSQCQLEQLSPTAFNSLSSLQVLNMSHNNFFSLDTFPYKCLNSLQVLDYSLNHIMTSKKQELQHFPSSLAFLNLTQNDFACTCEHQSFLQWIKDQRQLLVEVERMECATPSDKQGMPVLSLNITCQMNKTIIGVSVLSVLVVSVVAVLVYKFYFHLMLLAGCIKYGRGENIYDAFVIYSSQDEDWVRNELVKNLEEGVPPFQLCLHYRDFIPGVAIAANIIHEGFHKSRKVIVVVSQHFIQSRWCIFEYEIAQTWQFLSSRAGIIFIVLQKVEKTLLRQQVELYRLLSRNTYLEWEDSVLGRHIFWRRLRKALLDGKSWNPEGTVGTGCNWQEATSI
# mice or rat pups = assay: Safety profile of AVR-48 in mice or rat pups (IV, SC, IN; MTD/NOAEL); assay type: in vivo
# Procedure: (§1) Safety Profile of AVR-48. To assess the safety of AVR-48 (compound 8), two doses of intravenous (IV) slow bolus injections or subcutaneous (SC) injections or intranasal (IN) instillation were given to mice or rat pups (postnatal day 3-5 or P3-P5), >6 h apart. The total daily doses were up to 100 mg/kg/day IV, and up to 150 mg/kg/day SC, for 3 consecutive days. […] There was no change in any of the hematological or clinical chemistry parameters. Signs of discoloration, swelling, and macroscopic and microscopic signs of local irritation occurred at the site of administration in all treatment groups and were attributed to the administration vehicle (formulation of 10% DMSO, 20% Tetraglycol, and 20% PEG 400 in sterile water). […] Based on the parameters monitored in this study, the maximum tolerated dose (MTD) and no-observed-adverse-effect level (NOAEL) were considered to be 100 mg/kg/day via IV and 150 mg/kg/day via SC routes of dosing.
# (§2) Animals. C57BL/6J mice were purchased from The Jackson Laboratory (Bar Harbor, ME, USA) and were maintained in a breeding colony at Drexel University, Philadelphia, PA, USA. Animal procedures were performed in accordance with the NIH Guide for the Care and Use of Laboratory Animals and were approved by the Institutional Animal Care and Use Committee (IACUC) of Drexel University Philadelphia, PA (Protocol No. 20706). Neonatal rat pups born from female pregnant Sprague Dawley Crl:CD (SD) rats (Charles River Laboratories, St-Constant, QC, Canada) were used for the toxicology and PK studies to evaluate safety, determine the maximum tolerated dose (MTD) and the PK profile of AVR-48. A minimum 6-day acclimation period was allowed between receipt of the animals and the start of treatment to accustom the rats to the laboratory environment. All rat studies were approved by the IACUC of ITR Laboratories, Canada (Protocol No. 74691).
# (§3) Formulation of AVR-48 for efficacy and toxicokinetic studies. For the mouse dose response efficacy studies, AVR-48 was reconstituted in 0.9% sterile normal saline to give a final dose concentration of […] as a colorless solution, and injected IP (30 μl) on P2 and P4. The PLGA encapsulated AVR-48 or the GFP-tagged analog was resuspended in deionized sterile water to make a nanosuspension with final dose concentration of 0.025, 0.05 and 0.11 mg/kg/drop. The surfactant Curosurf® (Cheisi Parma, Italy), available commercially, was delivered IN at a volume of 3 μl per nostril, on P2 and P4. For the toxicokinetic study of AVR-48 in rat pups, a formulation of 10% DMSO, 20% tetraglycol, 20% PEG 400, and 50% sterile water was made fresh before administration (Shah, Das et al. 2021).
# (§4) Statistical Analysis. All statistical analyses were performed using Graph Pad Prism version 7.0 (GraphPad Software, San Diego, CA). The data are expressed as the mean±SEM with n=5 to 7 mice in each group. Groups were compared with the two-tailed unpaired t-test and one- or two-way analysis of variance (ANOVA), as appropriate. P<0.05 was considered statistically significant. For the toxicology and PK study, a generalized Analysis of Variance/Covariance (ANOVA/ANCOVA) test was performed on the numerical data (3 or more animals/groups) on the study as follows: An automatic transformation was used to analyze the data for homogeneity of variance using Levene's test. Parametric and non-parametric trends were analyzed using the Williams and the Shirley-Williams tests, respectively. Homogeneous data was analyzed using the ANOVA/ANCOVA, and the significance of intergroup differences between the control and test item-treated groups was analyzed using Dunnett's test. Heterogeneous data was analyzed using Kruskal-Wallis test and the significance of intergroup differences between the control and test item-treated groups was assessed using a nonparametric Dunnett's test. All data are reported as ±SEM. […]
# [3] = as above; assay type: in vivo; conditions: C57BL/6J (mouse), Sprague Dawley Crl:CD (rat), mouse, rat, in vivo; for MTD at 3 days: read-out: maximum tolerated dose (MTD); for NOAEL at 3 days: read-out: no-observed-adverse-effect level (NOAEL)
# Procedure: as §1, §2, §3, §4
# [4] = tested on: human lung alveolar type I epithelial cells (AT1); assay: TNF-α and nitric oxide in human lung alveolar type I epithelial cells co-treated with LPS; assay type: cell-based
# pre-term lamb BPD model [5] = assay: Pre-term lamb BPD model: lung histopathology and radial alveolar count; assay type: in vivo
# From the text: Detailed methods have been published previously by Reyburn et al. and Null et al (Reyburn, Li et al. 2008, Null, Alvord et al. 2014), relevant portions incorporated herein by reference. All protocols have been adhered to APS/NIH guidelines for animal research and have been approved by the Institution Animal Care and Use Committees (IACUC) at the University of Utah. Lung injury in PT neonates, including PT lambs, that are mechanically ventilated (MV) is the classical picture of alveolar simplification. Alveolar simplification is evident as distended terminal respiratory units that have few secondary septa and thick, cellular mesenchyme.
# The micrographs show terminal respiratory units (TRU) of the lung at the same magnification. […] Radial alveolar count is the number of tissue intersections across a terminal respiratory unit, from the center of the respiratory bronchiole to the perimeter of the terminal respiratory unit.
# TLR4 [6] = molecular target: T1, TLR4; assay: TLR4 assay: unbound TLR4 ELISA in PMA-stimulated THP-1 cell lysates; assay type: binding; conditions: THP-1 human monocyte cells
# Procedure: FIG. 26A, TLR4 assay: 1×10^5 THP cells (ATCC) were seeded in 24 well plates and stimulated with phorbol myristyl actetate (PMA, 200 ng/mL) for 48 h. Cell lysates were prepared, total protein was quantified and treated with different concentrations (4, 16, 62.5 and 250 μM) of the AVR-48 for 2 h. ELISA was performed after to assess unbound TLR4 following manufacturer's instruction (Raybiotech). TLR4 IC50 of the AVR-48 was calculated using GraphPad Prism7.04.
structure (smiles),measurement,setting,value
CC(=O)N[C@@H]1C(Oc2ccc([N+](=O)[O-])cc2)OC(CO)C(O)C1O (stereo partly drawn) [AVR-48],IL-10 concentration in plasma,"pre-term lamb BPD model [1]; early time points (1-4 days), 2/d for 7 days, vs vehicle",significantly decreased
same,IL-6 concentration in plasma,pre-term lamb BPD model [1]; vs vehicle treated lambs after 10 days,significantly decreased
same,"EC50, binding to monocytes/macrophages possibly via surface receptor TLR4",TLR4 [2],sub nanomolar
same,DC50,"TLR4 [2]; THP-1 cells, after 48 h of treatment, ELISA, read-out: EC50, decrease of TLR4 level",76 nM
same,toxic effects in the visceral organs,mice or rat pups; high dose of 100 mg/kg,did not have any toxic effects
same,hematological or clinical chemistry parameters,mice or rat pups; in vivo,no change
same,therapeutic index,"mice or rat pups; juvenile mouse, minimum efficacious dose 5 mg/kg/day vs NOAEL 100 mg/kg/day",20 fold
same,systemic gross observations at necropsy in the visceral organs,mice or rat pups; mouse and rat pups,no evidence of any AVR-48 related systemic gross observations
same,"white blood cell count, lymphocyte count (females only), total bilirubin (SC groups only)","mice or rat pups; treated animals, considered non-adverse, not dose dependent",slight decrease
same,injection site findings,mice or rat pups; twice daily IV at 50 mg/kg/dose vs vehicle IV,higher incidence of dermal/subcutaneous hemorrhage at the injection site
same,tolerability of all doses,"mice or rat pups; two doses/day >6 h apart, up to 100 mg/kg/day IV, up to 150 mg/kg/day SC, 3 consecutive days, P3-P5 pups",well tolerated
same,adverse clinical signs and body weight,"mice or rat pups; up to 100 mg/kg/day IV, up to 150 mg/kg/day SC, 3 days",no observed adverse clinical signs and or any change in body weight
same,MTD at 3 days,[3]; iv,100 mg/kg/day
same,NOAEL at 3 days,[3]; iv,100 mg/kg/day
same,MTD at 3 days,[3]; sc,150 mg/kg/day
same,NOAEL at 3 days,[3]; sc,150 mg/kg/day
same,nitric oxide (NO) production,[4]; co-treated with LPS,decreased
same,TNF-α production,"[4]; co-treated with LPS, ELISA",decreased
same,IL-10 level,[4]; epithelial cells,No significant level
same,IL-β level,[4]; epithelial cells,No significant level
same,radial alveolar count / alveoli formation,"pre-term lamb BPD model [5]; 3.0 mg/Kg, preliminary results",promotes alveoli formation
same,alveolar simplification (lung histopathology),pre-term lamb BPD model [5]; vs vehicle treated PT lamb,significantly improved
same,binding to TLR4,TLR4 [6],binds to TLR4
same,binding to TLR4,TLR4 [6]; listed as 8,bind TLR4
